This is an account of results in patent publication US9809595B2 (priority 2013, dated 2017).

Molecules are shown by their SMILES.

Experiment [1] relates to Salmonella typhimurium strain SJW1103. Nature of the experiment: Bacterial growth assay. The following applies: 5 μl of 100 mM compound in DMSO added to 10 ml LB, 303 K, OD600 read at 2, 4, 6, 8 and 10 hr; FIG. 6. In kind it is cell-based. The procedure:
The effect of the candidate compounds on the viability of bacteria cultures were first tested before analyzing their effect on the flexibility of FlhBC. 80 compounds out of the 237 compounds were purchased from KISHIDA CHEMICAL Co., Ltd according to the ranking. The Salmonella typhimurium strain SJW1103 was grown in LB medium at 303 K. Overnight cultures were diluted in Fresh LB medium to an optical density at 600 nm (OD600) of 0.1. Each of 5 μl of 100 mM candidate compounds solubilized in DMSO or DMSO alone as a control was added into 10 ml LB medium in 50-ml volume polypropylene conical tubes. For obtaining growth curves of the cell under the presence of each chemical, 0.2 ml of the culture volume were removed at every 2 h (2, 4, 6, 8 and 10 hr) and diluted with 1 ml of LB to measure absorbance at OD600.

Another experiment concerns secretion of FlgD. Nature of the experiment: Secretion assay (Western blot of culture supernatant with anti-FlgD antibody). The experiment is classed as cell-based, Salmonella typhimurium. As to conditions: supernatant of 8.0 hr culture from the growth assay, strain SJW1103; FIG. 7a and 7b. The procedure:
Then, effects of the selected compounds on different type III secretion phenotypes were assessed. 1 ml of the cell suspensions of 8.0 hr culture in the above-growth assay were centrifuged at 13,200 rpm (16,100 g) for 10 min. The supernatant fractions (0.9 ml) were fractionated into new tubes and mixed with 100% trichloroacetic acid thoroughly. The fractions were kept on ice at least 1 h to precipitate secreted proteins. After centrifugation at 15,400 rpm for 30 min, the precipitated supernatant fractions were resuspended in 0.02 ml of 1 M Tris base and stored −30° C. until use. Samples for SDS-PAGE analysis were prepared by adding 5× SDS loading Buffer and then heat at 95° C. for 5 min. SDS-PAGE analyses were carried out at the condition of 200V for 30 min using premade gels purchased from Bio-rad. Electro-blotting onto PVDF membrane was performed with iBlot from Invitrogen and the membranes were developed with Chromogenic Immuno-detection Kit (Invitrogen) using a custom antibody raised against FlgD, a flagellar protein (from Prof. Keiichi Namba, Osaka University). Images were digitized as gray scale color with ChemDoc (Bio-rad). Kaleidoscope (Bio-rad) was used as a molecular marker.
In general terms: A western blot detects proteins with antibodies after separation by electrophoresis.

As to `Cn1c(=O)c2c(ncn2CC(O)CO)n(C)c1=O` (stereo not shown) [compound 47, 7-(2,3-dihydroxypropyl)-1,3-dimethyl-3,7-dihydro-1H-purine-2,6-dione], in experiment [1], the “effect on bacterial growth (growth curve, OD600)” value is reported as “slight growth delay”. In addition, in the experiment with secretion of FlgD, the “inhibition of FlgD secretion (type III secretion system)” value is listed as “inhibit the secretion of FlgD”.

For the molecule `COc1cc(Cc2cnc(N)nc2N)cc(OC)c1OC` [compound 64, 5-(3,4,5-Trimethoxybenzyl)pyrimidine-2,4-diamine], the “effect on bacterial growth (growth curve, OD600)” value in experiment [1] was “slight growth delay”. Further, the “inhibition of FlgD secretion (type III secretion system)” value in the experiment with secretion of FlgD is on record as “inhibit the secretion of FlgD”.
